Assay [1] concerns HepG2 cells. Description: Transfection efficiency of HepG2 cells in vitro (GpLuc mRNA, luminescence of supernatant). The format is cell-based, human. The following applies: for effect on transfection efficiency (in words): added to polymer PB83, 24 h post transfection, compared to polymer alone. Here is the method: This example describes the evaluation of the effect of different polymer-lipid(oid) formulations (as described under Example ▪1) on transfection efficiency on HepG2 cells (human liver carcinoma cell line). As a read-out for transfection efficiency, GpLuc mRNA (SEQ ID NO: 14) was used as a cargo. Successful transfection with the cargo leads to the translation of the luciferase protein and to a secretion of Gp luciferase protein into the cell culture supernatant.
A volume of 0.2 mL HepG2 cells (10.000 cells) were seeded in a 96 well tissue culture plate. After removing the medium from each well, 100 μL RPMI 1640 medium (with 1% Penicillin and 1% Streptomycin, 1% L-Glutamin) was added to each well. Afterwards, HepG2 cells were transfected with 100 μL transfection mix (in triplicates) of the above described polymer-lipid(oid) mRNA complexes and respective controls (in triplicates), and cells were incubated at 37° C. and 5% CO2 for 90 minutes. After incubation, 150 μL medium was exchanged with 150 μL fresh RPMI 1640 medium supplemented with 10% fetal calf serum. Twenty-four hours post transfection, 10 μL of supernatant of each well was extracted and used for further luminescence analysis (see below).
A volume of 10 μL supernatant was transferred to a 96 well plate for GpLuc measurement. Then, coelenterazine working solution (100 μM) was prepared (1 mL coelenterazine stock solution (4.72 mM in EtOH) in 49 mL phosphate buffered saline supplemented with 5 mM NaCl, pH 7.2). A volume of 100 μL coelenterazine working solution was used as a substrate for GpLuc and measured after 5 seconds in a commercially available microplate reader.

The subject of assay [2] is hemagglutinin (HA) protein of influenza A virus (A/Netherlands/602/2009 (H1N1)). Put plainly: ELISA of influenza specific IgG1 and IgG2a antibodies in sera of vaccinated mice. It is filed as in vivo. The following applies: Balb/c mice, 10 μg HA-mRNA with 3-C12-OH i.m.; 21 days after prime and 14 days after boost. A general note: ELISA stands for enzyme-linked immunosorbent assay.

Assay [3] has as its system Sol8 muscle cells. Put plainly: Transfection efficiency of differentiated Sol8 muscle cells in vitro (GpLuc mRNA). The format is cell-based, mouse. The following applies: added to polymer PB83, low- and high-charge ratio complexes, 24 h post transfection. The source says: The purpose of this example is to assess the effect of lipid additives such as permanently cationic lipids or lipidoids on transfection/expression efficiency in Sol8 cells. […] Sol8 is a myogenic cell line isolated by Daubas et al. from primary cultures of soleus muscle taken from the leg of a normal C3H mouse. As a read-out for transfection efficiency, GpLuc mRNA (SEQ ID NO: 14) was used as the cargo. A successful transfection with the cargo leads to the translation of the luciferase protein and to a secretion of Gp luciferase protein into the cell culture supernatant. For further details on the GpLuc mRNA cargo see Example 1.
For a subset on hydrogel, a volume of 0.2 mL Sol8 cells (20.000 cells) were seeded in 96 well glass bottom plates (Softwell Hydrogel coated with collagen (elasticity E=12 kPa)) on day 1. For another subset without hydrogel, a volume of 0.2 mL with 10.000 Sol8 cells per well were seeded in a 96 well glass bottom plates.
After removing the medium from each well, 100 μL DMEM medium (with 2% horse serum) was added to each well. Afterwards, on day 2, Sol8 cells were transfected with 100 μL transfection mix of polymer-lipid(oid) complexes (in triplicates without serum) and respective controls (also in triplicates), and cells were incubated at 37° C. and 5% CO2 for 120 minutes (non-hydrogel subset) or respectively 90 minutes (hydrogel subset). After incubation, 150 μL medium was exchanged with 150 μL fresh DMEM medium supplemented with 10% fetal calf serum.
Twenty-four hours post transfection, i.e. on day 3, 10 μL of supernatant of each well was extracted and used for quantification of protein expression (measurement of GpLuc) via luminescence analysis as described above.

Assay [4] concerns hemagglutinin (HA) protein of influenza A virus (A/Netherlands/602/2009 (H1N1)). It is filed as in vivo. Conditions: Balb/c mice, 10 μg HA-mRNA with 3-C12-OH i.m.; splenocytes 14 days after boost.
Assay [5] has the same test system. Put plainly: Hemagglutination inhibition assay after intramuscular vaccination with HA-mRNA and 3-C12-OH (second Example 7). It is filed as in vivo. The following applies: Balb/c mice, 10 μg HA-mRNA R2564 with 3-C12-OH, i.m.; after prime and boost vaccination.

These results are taken from US20190336608A1, “CATIONIC CARRIERS FOR NUCLEIC ACID DELIVERY” (priority 2016, published 2019).

With `CCCCCCCCCCC(O)C[N+](C)(C)CCN(CC[N+](C)(C)CC(O)CCCCCCCCCC)CC[N+](C)(C)CC(O)CCCCCCCCCC` (centres unmarked) [3-C12-OH-cat], the “effect on transfection efficiency (in words)” value in assay [1] is given as “profound increase”.
For the compound `CCCCCCCCCCC(O)CNCCN(CCNCC(O)CCCCCCCCCC)CCNCC(O)CCCCCCCCCC` (centres unmarked) [3-C12-OH], in assay [2], the “functional antibody titers, IgG1 subtype, compared to mRNA without lipid” value was “significantly higher” and the “functional antibody titers, IgG2a subtype, compared to mRNA without lipid” value is reported as “significantly higher”. Further, the “effect on transfection efficiency (in words)” value in assay [1] is given as “profound increase”. In assay [3], the “effect on transfection efficiency / expression level (in words)” value is given as “profound increase”. The “IFNy production compared to non-lipid-formulated mRNA” value in assay [4] was “significant increased”. In addition, in assay [5], the “antibody titers against the HA protein compared to HA-mRNA (R2564) alone” value was “significantly higher”.
Consider `CCCCCCCCCCCCNCCN(CCNCCCCCCCCCCCC)CCNCCCCCCCCCCCC` [3-C12], for which, in assay [1], the “effect on transfection efficiency (in words)” value was “profound increase”. Moreover, the “effect on transfection efficiency / expression level (in words)” value in assay [3] is on record as “profound increase”.
Turning to `CCCCCCCC/C=C\CCCCCCCC(=O)OCC(C[N+](C)(C)C)OC(=O)CCCCCCC/C=C\CCCCCCCC` (centres unmarked) [DOTAP, 1,2-dioleoyl-3-trimethylammonium-propane, reference compound], the “increase in transfection efficiency compared to transfections with polymer alone” value in assay [1] (combination with polymer PB83, high-charge complexes N/P 2, N/P 4, N/P 6, 24 h post transfection) is “up to 3 log units”. The “effect on transfection efficiency / expression level (in words)” value in assay [3] is given as “effective”.
